Test results as given in PMC9944328 (Nature Communications, 2023).
“Also recorded” adds a separate entry of the source. Read-outs that look alike come from different tables or passages of the source.

Legend:
acromegalic patients = conditions: cited from earlier work
Description: Somatostatin receptors (SSTRs) are members of the G protein-coupled receptor (GPCR) superfamily and contain five subtypes (SSTR1–5). SSTRs, especially SSTR2, are expressed at high levels in NETs and have emerged as important biomarkers[4],[6]. SSTRs and their endogenous ligands, somatostatin (SST) peptides, exert important physiological regulation of neuroendocrine functions. […] However, the use of SST for disease treatment is li ... || SSTR2 transmits extracellular signals into cells through Gαi/o coupling and β-arrestin recruitment pathways. cAMP inhibition causes decreased hormone secretion and cell proliferation[13],[14], while the β-arrestin recruitment results in subsequent receptor internalization thus influence the cell membrane distribution level and desensitization of SSTR2, which may lead to drug resistance and poor clinical curative effect[15]–[18].

SSTR1–5 = test: Gi signaling of SSTR1–5, cAMP inhibition, HEK293; type: cell-based, human; conditions: SSTR2 versus other SSTRs
Protocol: (§1) The levels of the intracellular 3′, 5′-cyclic AMP (cAMP) were measured by the GloSensor cAMP assay (Promega) as described in the previous studies[28],[41] which has been widely used. The human full-length SSTRs and mutants were cloned into the pcDNA3.1+ vector with a HA signal sequence followed by a Flag tag at the N-terminus. […] Cells were then co-transfected with SSTR wild-type or mutants and GloSensor plasmids. After 24 h of transfection, the cells were dissociated with TrypLE™ Express Enzyme (1X) (Thermo Fisher Scientific) and collected by centrifugation at 500 × g for 5 min. Then the collected cells were suspended in Hank’s balanced salt solution [HBSS (Thermo Fisher Scientific)] supplemented with […] potassium salt solution (YEASEN), and then the suspension cells were seeded into 96-well plates with 90 μl/well. After incubating at room temperature for 40 min, 5 μM forskolin and ligands diluted in HBSS were added to each well and the plates were incubated at room temperature for 15 min. […] signals were measured using the Synergy H1 microplate reader (BioTek) and the data presented are means of at least three independent experiments.

SSTR3 mutants [1] = molecular target: SSTR3 mutants (Homo sapiens, UniProt P32745, N104V); test: SSTRs Gi-mediated cAMP inhibition, GloSensor, HEK293 (SSTR3 mutants); type: cell-based; parameters: Bottom / Top / Span / Top (best-fit): unit not given here; conditions: for Top: best-fit
Protocol: as §1

SSTR3 mutants [2] = molecular target: T1, SSTR3 mutants (Homo sapiens, UniProt P32745, M193I); test: as above; type: cell-based; parameters: Bottom / Top / Span / Top (best-fit): unit not given here
T1 construct: The human full-length SSTRs and mutants were cloned into the pcDNA3.1+ vector; expressed in transfected cells; host or cells: HEK293 (ATCC, CRL-1573)
Protocol: as §1

SSTR3 mutants [3] = molecular target: SSTR3 mutants (Homo sapiens, UniProt P32745, F296D); test: as above; type: cell-based; parameters: Bottom / Top / Span / Top (best-fit): unit not given here
Protocol: as §1

SSTR3 mutants [4] = test: as above; type: cell-based, human; parameters: Bottom / Top / Span / Top (best-fit): unit not given here; conditions: H192(45.51)T and N101(2.64)V in SSTR3
Protocol: as §1

SSTR3 mutants (Homo sapiens, UniProt P32745, F296D), sequence (P32745 whole entry F296D): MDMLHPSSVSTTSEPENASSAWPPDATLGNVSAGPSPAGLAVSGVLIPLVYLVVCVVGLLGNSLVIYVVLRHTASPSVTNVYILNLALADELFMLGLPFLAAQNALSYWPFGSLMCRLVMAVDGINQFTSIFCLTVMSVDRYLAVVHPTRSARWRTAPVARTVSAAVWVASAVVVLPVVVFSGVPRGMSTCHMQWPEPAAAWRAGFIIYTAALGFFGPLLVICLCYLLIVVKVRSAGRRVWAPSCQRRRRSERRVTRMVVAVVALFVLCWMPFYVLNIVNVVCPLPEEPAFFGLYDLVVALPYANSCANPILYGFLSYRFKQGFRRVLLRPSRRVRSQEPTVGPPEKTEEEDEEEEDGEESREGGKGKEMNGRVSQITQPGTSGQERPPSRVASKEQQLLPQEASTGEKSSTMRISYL
SSTR3 mutants (Homo sapiens, UniProt P32745, N104V), sequence (P32745 whole entry N104V): as the sequence (P32745 whole entry F296D) above, with N104V, D296F counted along it
T1 sequence (P32745 whole entry M193I): as the sequence (P32745 whole entry F296D) above, with M193I, D296F counted along it

Compound: C[C@@H](O)[C@@H]1NC(=O)[C@H](CCCCN)NC(=O)[C@@H](Cc2c[nH]c3ccccc23)NC(=O)[C@H](Cc2ccccc2)NC(=O)[C@@H](NC(=O)[C@H](N)Cc2ccccc2)CSSC[C@@H](C(=O)N[C@H](CO)[C@@H](C)O)NC1=O [octreotide]
- Acromegalic patients who do not respond well (acromegalic patients): ~ 30%
- SSTR2 expression level during administration (acromegalic patients): down-regulated

Compound: N#Cc1cccc(-c2ccc3ncc(-c4cc(F)cc(F)c4)c(N4CCC(N)CC4)c3c2)c1O [paltusotine]
- Subtype selectivity (SSTR1–5): highly selective agonist of SSTR2 relative to other SSTR subtypes; also recorded: more potent selectivity for SSTR2; also recorded: higher selectivity and efficacy towards SSTR2 relative to other group 2 SSTRs
- EC50 (SSTR3 mutants [1]): 97.8 nM
- Top (SSTR3 mutants [1]; SSTR3 N101V-1): 184
- Top (SSTR3 mutants [1]; SSTR3 N101V-2): 142.6
- Top (SSTR3 mutants [1]; SSTR3 N101V-3): 142.6
- Emax (SSTR3 mutants [2]; HEK293, Suppl. Table 4, SSTR3 M193(45.52)I, n=3): 38.8 ± 17.4%
- Fold of WT (SSTR3 mutants [2]; Suppl. Table 4, SSTR3 M193(45.52)I): 2.89
- EC50 (SSTR3 mutants [2]; Suppl. Table 4, SSTR3 M193(45.52)I, n=3): 184 ± 6.02 nM
- Bottom (SSTR3 mutants [2]; best-fit, SSTR3 M193I-1): -5.898
- EC50 (SSTR3 mutants [2]; best-fit, SSTR3 M193I-1): 590 nM
- LogEC50 (SSTR3 mutants [2]; best-fit, SSTR3 M193I-1): -6.229
- Span (SSTR3 mutants [2]; best-fit, SSTR3 M193I-1): 76.32
- Top (SSTR3 mutants [2]; best-fit, SSTR3 M193I-1): 70.42
- Bottom (SSTR3 mutants [2]; best-fit, SSTR3 M193I-2): 0.4332
- LogEC50 (SSTR3 mutants [2]; best-fit, SSTR3 M193I-2): ~ -3.924
- Span (SSTR3 mutants [2]; best-fit, SSTR3 M193I-2): ~ 6676
- Top (SSTR3 mutants [2]; best-fit, SSTR3 M193I-2): ~ 6677
- Bottom (SSTR3 mutants [2]; best-fit, SSTR3 M193I-3): 0.4332
- LogEC50 (SSTR3 mutants [2]; best-fit, SSTR3 M193I-3): ~ -3.924
- Span (SSTR3 mutants [2]; best-fit, SSTR3 M193I-3): ~ 6676
- Top (SSTR3 mutants [2]; best-fit, SSTR3 M193I-3): ~ 6677
- EC50 (SSTR3 mutants [3]): 309 ± 6.3 nM
- Emax (SSTR3 mutants [3]; HEK293): 65.5 ± 6.4%
- Fold of WT (SSTR3 mutants [3]; Suppl. Table 4, SSTR3 F296(7.35)D): 4.84
- Bottom (SSTR3 mutants [3]; best-fit, SSTR3 F296D-1): 5.089
- LogEC50 (SSTR3 mutants [3]; best-fit, SSTR3 F296D-1): -6.01
- Span (SSTR3 mutants [3]; best-fit, SSTR3 F296D-1): 99.77
- Top (SSTR3 mutants [3]; best-fit, SSTR3 F296D-1): 104.9
- EC50 (SSTR3 mutants [3]; best-fit, SSTR3 F296D-1, read-out: EC50): 978 nM
- Bottom (SSTR3 mutants [3]; best-fit, SSTR3 F296D-2): 18.98
- LogEC50 (SSTR3 mutants [3]; best-fit, SSTR3 F296D-2): -6.627
- Span (SSTR3 mutants [3]; best-fit, SSTR3 F296D-2): 120
- Top (SSTR3 mutants [3]; best-fit, SSTR3 F296D-2): 139
- EC50 (SSTR3 mutants [3]; best-fit, SSTR3 F296D-2, read-out: EC50): 236 nM
- Bottom (SSTR3 mutants [3]; best-fit, SSTR3 F296D-3): 12.18
- LogEC50 (SSTR3 mutants [3]; best-fit, SSTR3 F296D-3): -6.94
- Span (SSTR3 mutants [3]; best-fit, SSTR3 F296D-3): 133.1
- Top (SSTR3 mutants [3]; best-fit, SSTR3 F296D-3): 145.3
- EC50 (SSTR3 mutants [3]; best-fit, SSTR3 F296D-3, read-out: EC50): 115 nM
- Receptor activation of mutants (SSTR3 mutants [4]): increased paltusotine-induced SSTR3 activation
